Measured values taken from ChEMBL document CHEMBL1155690, “Antiyeast steroidal saponins from Yucca schidigera (Mohave yucca), a new anti-food-deteriorating agent” (2000).
Values after ≈ are worked out from the molar mass of the structure shown.

How the values were obtained:
Assay type in all cases: functional
Saccharomyces cerevisiae = experiment: Antimicrobial activity against Saccharomyces cerevisiae IFO 203 after 48 hrs by agar dilution method; conditions: IFO 203, 48 h
Wickerhamomyces anomalus = experiment: Antimicrobial activity against Hansenula anomala HUT 7083 after 48 hrs by agar dilution method
Candida albicans = experiment: Antimicrobial activity against Candida albicans TIMM 0134 after 48 hrs by agar dilution method
Yamadazyma nakazawae = experiment: Antimicrobial activity against Pichia nakazawae HUT 1688 after 48 hrs by agar dilution method
Hanseniaspora uvarum = experiment: Antimicrobial activity against Kloeckera apiculata IFO 154 after 48 hrs by agar dilution method; conditions: IFO 154, 48 h
Debaryomyces hansenii = experiment: Antimicrobial activity against Debaryomyces hansenii IFO 18 after 48 hrs by agar dilution method; conditions: IFO 18, 48 h

Structure (SMILES)	MIC (Saccharomyces cerevisiae) [µg/mL]	MIC (Wickerhamomyces anomalus) [µg/mL]	MIC (Candida albicans) [µg/mL]	MIC (Yamadazyma nakazawae) [µg/mL]	MIC (Hanseniaspora uvarum) [µg/mL]	MIC (Debaryomyces hansenii) [µg/mL]
CC1CC[C@@]2(OC1)O[C@H]1C[C@H]3[C@@H]4CC[C@@H]5C[C@@H](O[C@@H]6O[C@H](CO)[C@H](O)[C@H](O[C@@H]7OC[C@@H](O)[C@H](O)[C@H]7O)[C@H]6O[C@@H]6O[C@H](CO)[C@@H](O)[C@H](O)[C@H]6O)[C@@H](O)C[C@]5(C)[C@H]4CC[C@]3(C)[C@H]1[C@@H]2C (some centres undefined)	100 (≈ 112 µM)	> 100	> 100	> 100	> 100	100 (≈ 112 µM)
C[C@H]1CC[C@@]2(OC1)O[C@H]1C[C@H]3[C@@H]4CC[C@@H]5C[C@@H](O[C@@H]6O[C@H](CO)[C@H](O)[C@H](O)[C@H]6O[C@@H]6O[C@H](CO)[C@@H](O)[C@H](O)[C@H]6O)[C@@H](O)C[C@]5(C)[C@H]4CC[C@]3(C)[C@H]1[C@@H]2C	> 100	> 100	> 100	100 (≈ 132 µM)	> 100	> 100
C[C@H]1CC[C@@]2(OC1)O[C@H]1C[C@H]3[C@@H]4CC[C@@H]5C[C@@H](O[C@@H]6O[C@H](CO)[C@@H](O)[C@H](O)[C@H]6O[C@@H]6O[C@H](CO)[C@@H](O)[C@H](O)[C@H]6O)CC[C@]5(C)[C@H]4CC[C@]3(C)[C@H]1[C@@H]2C	12.5 (≈ 16.9 µM)	6.25 (≈ 8.44 µM)	12.5 (≈ 16.9 µM)	3.13 (≈ 4.22 µM)	> 100	> 100
C=C1CC[C@@]2(OC1)O[C@H]1C[C@H]3[C@@H]4CC[C@@H]5C[C@@H](O[C@@H]6O[C@H](CO)[C@H](O)[C@H](O)[C@H]6O[C@@H]6O[C@H](CO)[C@@H](O)[C@H](O)[C@H]6O)[C@@H](O)C[C@]5(C)[C@H]4CC[C@]3(C)[C@H]1[C@@H]2C	> 100	> 100	> 100	> 100	> 100	> 100
CC1CC[C@@]2(OC1)O[C@H]1C[C@H]3[C@@H]4CC[C@@H]5C[C@@H](O[C@@H]6O[C@H](CO)[C@@H](O)[C@H](O[C@@H]7OC[C@@H](O)[C@H](O)[C@H]7O)[C@H]6O[C@@H]6O[C@H](CO)[C@@H](O)[C@H](O)[C@H]6O)CC[C@]5(C)[C@H]4CC(=O)[C@]3(C)[C@H]1[C@@H]2C (mixture of isomers)	100	100	> 100	> 100	> 100	> 100
C[C@H]1CC[C@@]2(OC1)O[C@H]1C[C@H]3[C@@H]4CC[C@@H]5C[C@@H](O[C@@H]6O[C@H](CO)[C@@H](O)[C@H](O[C@@H]7O[C@H](CO)[C@@H](O)[C@H](O)[C@H]7O)[C@H]6O[C@@H]6O[C@H](CO)[C@@H](O)[C@H](O)[C@H]6O)CC[C@]5(C)[C@H]4CC[C@]3(C)[C@H]1[C@@H]2C	6.25 (≈ 6.92 µM)	1.56 (≈ 1.73 µM)	> 100	3.13 (≈ 3.47 µM)	> 100	6.25 (≈ 6.92 µM)
C[C@H]1CC[C@@]2(OC1)O[C@H]1C[C@H]3[C@@H]4CC[C@@H]5C[C@@H](O[C@@H]6O[C@H](CO)[C@H](O)[C@H](O[C@@H]7O[C@H](CO)[C@@H](O)[C@H](O)[C@H]7O)[C@H]6O[C@@H]6O[C@H](CO)[C@@H](O)[C@H](O)[C@H]6O)CC[C@]5(C)[C@H]4CC[C@]3(C)[C@H]1[C@@H]2C	12.5 (≈ 13.8 µM)	3.13 (≈ 3.47 µM)	25 (≈ 27.7 µM)	6.25 (≈ 6.92 µM)	50 (≈ 55.4 µM)	6.25 (≈ 6.92 µM)

Continued, values first:

MIC (Saccharomyces cerevisiae) [µg/mL]	MIC (Wickerhamomyces anomalus) [µg/mL]	MIC (Candida albicans) [µg/mL]	MIC (Yamadazyma nakazawae) [µg/mL]	MIC (Hanseniaspora uvarum) [µg/mL]	MIC (Debaryomyces hansenii) [µg/mL]	Structure (SMILES)
12.5 (≈ 14.4 µM)	3.13 (≈ 3.59 µM)	12.5 (≈ 14.4 µM)	3.13 (≈ 3.59 µM)	> 100	> 100	C=C1CC[C@@]2(OC1)O[C@H]1C[C@H]3[C@@H]4CC[C@@H]5C[C@@H](O[C@@H]6O[C@H](CO)[C@H](O)[C@H](O[C@@H]7OC[C@@H](O)[C@H](O)[C@H]7O)[C@H]6O[C@@H]6O[C@H](CO)[C@@H](O)[C@H](O)[C@H]6O)CC[C@]5(C)[C@H]4CC[C@]3(C)[C@H]1[C@@H]2C
25	3.13	> 100	12.5	> 100	50	CC1CC[C@@]2(OC1)O[C@H]1C[C@H]3[C@@H]4CC[C@@H]5C[C@@H](O[C@@H]6O[C@H](CO)[C@H](O)[C@H](O[C@@H]7OC[C@@H](O)[C@H](O)[C@H]7O)[C@H]6O[C@@H]6O[C@H](CO)[C@@H](O)[C@H](O)[C@H]6O)CC[C@]5(C)[C@H]4CC[C@]3(C)[C@H]1[C@@H]2C (mixture of isomers)
100 (≈ 113 µM)	> 100	100 (≈ 113 µM)	100 (≈ 113 µM)	> 100	> 100	C=C1CC[C@@]2(OC1)O[C@H]1C[C@H]3[C@@H]4CC[C@@H]5C[C@@H](O[C@@H]6O[C@H](CO)[C@H](O)[C@H](O[C@@H]7OC[C@@H](O)[C@H](O)[C@H]7O)[C@H]6O[C@@H]6O[C@H](CO)[C@@H](O)[C@H](O)[C@H]6O)[C@@H](O)C[C@]5(C)[C@H]4CC[C@]3(C)[C@H]1[C@@H]2C
12.5 (≈ 13.9 µM)	6.13 (≈ 6.8 µM)	12.5 (≈ 13.9 µM)	3.13 (≈ 3.47 µM)	> 100	> 100	C=C1CC[C@@]2(OC1)O[C@H]1C[C@H]3[C@@H]4CC[C@@H]5C[C@@H](O[C@@H]6O[C@H](CO)[C@@H](O)[C@H](O[C@@H]7O[C@H](CO)[C@@H](O)[C@H](O)[C@H]7O)[C@H]6O[C@@H]6O[C@H](CO)[C@@H](O)[C@H](O)[C@H]6O)CC[C@]5(C)[C@H]4CC[C@]3(C)[C@H]1[C@@H]2C
3.13 (≈ 3.59 µM)	3.13 (≈ 3.59 µM)	6.25 (≈ 7.18 µM)	3.13 (≈ 3.59 µM)	12.5 (≈ 14.4 µM)	6.25 (≈ 7.18 µM)	C=C1CC[C@@]2(OC1)O[C@H]1C[C@H]3[C@@H]4CC[C@@H]5C[C@@H](O[C@@H]6O[C@H](CO)[C@@H](O)[C@H](O[C@@H]7OC[C@@H](O)[C@H](O)[C@H]7O)[C@H]6O[C@@H]6O[C@H](CO)[C@@H](O)[C@H](O)[C@H]6O)CC[C@]5(C)[C@H]4CC[C@]3(C)[C@H]1[C@@H]2C
6.25	3.13	50	3.13	> 100	6.25	CC1CC[C@@]2(OC1)O[C@H]1C[C@H]3[C@@H]4CC[C@@H]5C[C@@H](O[C@@H]6O[C@H](CO)[C@@H](O)[C@H](O[C@@H]7OC[C@@H](O)[C@H](O)[C@H]7O)[C@H]6O[C@@H]6O[C@H](CO)[C@@H](O)[C@H](O)[C@H]6O)CC[C@]5(C)[C@H]4CC[C@]3(C)[C@H]1[C@@H]2C (mixture of isomers)
> 100	> 100	> 100	> 100	> 100	> 100	C=C1CC[C@@]2(OC1)O[C@H]1C[C@H]3[C@@H]4CC[C@@H]5C[C@@H](O[C@@H]6O[C@H](CO)[C@@H](O)[C@H](O[C@@H]7OC[C@@H](O)[C@H](O)[C@H]7O)[C@H]6O[C@@H]6O[C@H](CO)[C@@H](O)[C@H](O)[C@H]6O)CC[C@]5(C)[C@H]4CC(=O)[C@]3(C)[C@H]1[C@@H]2C
